What all share (assay type): cell-based
The target of assay [1] is T1, KV1.3 (delayed-rectifier K+ channel, IK(DR)) (Homo sapiens, UniProt P22001).
T1 construct: gene KCNA3; native channel in Jurkat T-lymphocytes
Kind of assay: whole-cell patch clamp of native IK(DR), concentration-response (kinetic KD […]).

Assay [2] concerns the target T2, IKCa channel (KCa3.1) (Homo sapiens, UniProt O15554).
T2 construct: gene KCNN4; native channel in Jurkat T-lymphocytes
The experiment in a line: cell-attached single-channel recording; open probability decreased at […]. The settings on record: read-out: % decrease of open probability at 30 μM.

Assay [3] has as its target T2, IKCa channel (KCa3.1). The experiment in a line: cell-attached single-channel recording; […] DCEBIO raised open probability in presence of MDZ.

Molecules are shown by their SMILES.

T2 sequence (O15554 whole entry): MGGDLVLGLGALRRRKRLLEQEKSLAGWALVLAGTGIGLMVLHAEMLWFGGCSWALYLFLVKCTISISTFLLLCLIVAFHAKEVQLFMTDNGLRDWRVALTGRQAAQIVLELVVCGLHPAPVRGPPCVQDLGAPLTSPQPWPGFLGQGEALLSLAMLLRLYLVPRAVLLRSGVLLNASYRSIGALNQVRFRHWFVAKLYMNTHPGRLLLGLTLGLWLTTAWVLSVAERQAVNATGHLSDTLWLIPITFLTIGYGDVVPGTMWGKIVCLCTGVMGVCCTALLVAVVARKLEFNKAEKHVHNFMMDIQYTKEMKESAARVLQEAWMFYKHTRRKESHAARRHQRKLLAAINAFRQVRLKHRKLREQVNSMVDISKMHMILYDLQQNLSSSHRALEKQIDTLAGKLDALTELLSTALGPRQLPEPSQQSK
T1 sequence (P22001 whole entry): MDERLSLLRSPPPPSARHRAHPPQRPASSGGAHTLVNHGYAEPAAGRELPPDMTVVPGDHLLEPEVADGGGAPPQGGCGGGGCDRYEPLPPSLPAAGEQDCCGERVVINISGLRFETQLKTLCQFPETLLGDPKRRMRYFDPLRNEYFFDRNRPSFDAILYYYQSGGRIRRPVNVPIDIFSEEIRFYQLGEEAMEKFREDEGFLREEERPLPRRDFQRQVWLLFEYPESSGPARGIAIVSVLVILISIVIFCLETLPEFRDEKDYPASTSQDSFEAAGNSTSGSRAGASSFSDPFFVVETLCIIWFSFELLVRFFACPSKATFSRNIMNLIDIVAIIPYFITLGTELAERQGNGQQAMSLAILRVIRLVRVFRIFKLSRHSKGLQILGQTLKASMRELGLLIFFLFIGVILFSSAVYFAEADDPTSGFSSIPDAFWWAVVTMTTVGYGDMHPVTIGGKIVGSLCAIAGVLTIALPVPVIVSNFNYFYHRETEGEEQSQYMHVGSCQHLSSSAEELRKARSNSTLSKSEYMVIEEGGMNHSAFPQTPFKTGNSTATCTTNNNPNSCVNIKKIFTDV

What is called IC50 is the concentration that inhibits the measured activity by half. With `Cc1ncc2n1-c1ccc(Cl)cc1C(c1ccccc1F)=NC2` [MDZ, 8-chloro-6-(2-fluorophenyl)-1-methyl-4H-imidazo [1,5-a][1,4] benzodiazepine], the IC50 in assay [1] came to 5.87 µM. In addition, in assay [2], the inhibition at 30 µM turned out to be 85.7 ± 2.5%.
With `CCn1c(=O)[nH]c2cc(Cl)c(Cl)cc21` [DCEBIO, 5,6-dichloro-1-ethyl-1,3-dihydro-2H-benzimidazol-2-one], in assay [3], the “cell-attached single-channel recording; 3 μM DCEBIO raised open probability in p” value is 0.121 ± 0.006 open probability (with 3 µM DCEBIO plus 30 µM MDZ).

(Values after article PMC8267671, “Midazolam’s Effects on Delayed-Rectifier K^+ Current and Intermediate-Conductance Ca^2+-Activated K^+ Channel in Jurkat T-lymphocytes” (International Journal of Molecular Sciences, 2021).)
